System: α-amylase (BUZYME 2508)
Experiment: α-amylase activity test with RED-STARCH substrate in paper mill process water
Type: biochemical
Conditions: for effect on the α-amylase activity (in words): high demand solution containing α-amylase, NaOCl at between 10% to 50% of actual chlorine demand; for α-amylase activity: 15 minutes at 40° C. before substrate, 30 minutes at 40° C., percentage of the maximum reading
Protocol: In the experiments described below, amylase activity was measured using a synthetic α-amylase substrate, “RED-STARCH” obtained from MEGAZYME® (Ireland), and a test procedure developed that allows the use of this substrate in complex paper mill process waters including samples containing cellulose.
The indicated test procedure developed for testing paper mill samples for α-amylase activity includes preparation of the substrate by adding 1 g of powdered RED-STARCH substrate to 50 mL of 0.5 M KCl solution ([…]), and warming up to 60° C. whilst shaking vigorously until dissolved. The prepared substrate can be used fresh or stored under refrigeration until used. A concentrated assay buffer solution was prepared as a 300 mM CaCl2.2H2O solution (39.2 g/l), which for use, is diluted 200 times in the assay. Assays can be performed on any liquid sample recovered in a paper mill. Samples with high turbidity may interfere with the final measurement step. Accordingly, samples containing fiber can be filtered through a paper filter, and liquid from high consistency samples can be recovered by squeezing liquid from the sample. To perform the assay on a sample, 30 μl assay buffer, 3 ml RED-STARCH substrate solution, and a 3 ml test sample solution can be added to a 35 ml test vial, and mix and incubate the vial and contents at constant temperature (35-40° C.) for 30 minutes. The reaction is ended by adding 10 ml ethanol (denatured) or methanol and shaking vigorously, and then allowing the vial and its contents to stand for 2 minutes before filtering the contents through a paper filter. High molecular weight material can be removed by the filtering. Using a 10 ml syringe, the filtered liquid is passed through a 0.22 or 0.45 μm disposable filter cartridge. The liquid that passes through the cartridge is introduced into a spectrophotometer cuvette, and the absorbance (OD) of the reaction solution, and a separate reaction blank, are measured using a spectrophotometer. The reaction blank is prepared by adding 10 ml ethanol or methanol to a test vial first, then add 30 μl assay buffer, 3 ml red starch substrate solution, and a 3 ml test solution, and prepare the samples for measurement as above. The spectrophotometer can be a Hach DR/890 Colorimeter (Hach Company, Loveland Colo.), or other spectrophotometer device. Absorbance can be measured as optical density (OD). On incubation of the RED-STARCH substrate with α-amylase, the substrate can be depolymerized to produce low molecular weight dyed fragments which remain in solution on addition of alcohol to the reaction mixture. The measured value of OD is directly proportional to the α-amylase activity in the test sample. Most spectrophotometers have a scale that reads in OD (absorbance) units, which is a logarithmic scale. A user edited program can be entered into the DR/890 device, including choosing a wavelength of 510 nm at which absorbance is measured, using water as a blank (OD=0), and preparing a maximum α-amylase activity sample by adding a small amount of BUZYME® 2508 (Buckman Laboratories, Belgium) to water and using this in the assay (max. OD that can be measured is approximately 25). The range that is obtained with this program is very large and can suffice for all paper mill samples. Using this testing procedure, paper mill samples typically have absorbance values in the range of 1-7. If a sample gives a maximum reading, it can be diluted in water to determine a more precise value. Results can be represented as the actual number or as a percentage of the maximum reading of the procedure which is 25. The results in Table 1 below show results for α-amylase activity as a percentage of the maximum reading.
In the tests conducted, process water was used that was taken from a coated paper machine pulper fill water tank that was not being treated with an oxidizing program. First, the actual chlorine and monochloramine (NH2Cl) demands of this process water were determined (Table 1). […]

[1] = oxidant added at 10.0% of demand
[2] = oxidant added at 25.0% of demand
[3] = oxidant added at 50% of demand (NaOCl printed 50/0%)
[4] = oxidant added at 100.0% of demand

SMILES | effect on the α-amylase activity (in words) | activity to inactivate amylases (in words) (in direct tests) | α-amylase activity [1] | α-amylase activity [2] | α-amylase activity [3] | α-amylase activity [4]
OCl [NaOCl, sodium hypochlorite] | effective to reduce the α-amylase activity | very efficient | 99.2% | 87.4% | 43.8% | 2.1%
NCl [NH2Cl, monochloramine] | no significant effect | – | 100.0% | 98.5% | 99.3% | 99.1%

Reference: patent US9347179B2, “Methods of preserving starch in pulp and controlling calcium precipitation and/or scaling” (Buckman Laboratories International, Inc., priority 2012, dated 2016)
